Here are results for 1 compound from paper PMC5872235 (2018).

Test [1] relates to S. aureus in patients with atopic dermatitis. Type of test: cell-based, Staphylococcus aureus.
In test [2] the test system is S. aureus in control group. Type of test: cell-based, Staphylococcus aureus.
The subject of test [3] is Staphylococcus aureus strains isolated from atopic dermatitis (AD) patients. To be noted: strains isolated from atopic dermatitis (AD) patients, 18 h.
Test [4] has as its system Staphylococcus aureus strains isolated from control group. To be noted: strains isolated from control group, 18 h.
Test [5] concerns Superantigen positive Staphylococcus aureus (n = 52). To be noted: Superantigen positive (n = 52, 18 h).
The test system of test [6] is Superantigen negative Staphylococcus aureus (n = 48). As to conditions: Superantigen negative (n = 48, 18 h).
Test [7] deals with vancomycin intermediate S. aureus (VISA) isolates. As to conditions: cited from earlier work.

The term MIC50 denotes an inhibitory concentration at the 50% level, which refers to growth in some studies and to a panel of isolates in others. The MIC90 is an inhibitory concentration at the 90% level, which refers to growth in some studies and to a panel of isolates in others. Higher therefore signals weaker potency. By MIC is commonly meant the smallest concentration in the dilution series that meets the test's criterion for growth inhibition.

In brackets after ≈: the same amount, converted by molar mass.

As to `CCCCCCCCCC(=O)N[C@@H](Cc1c[nH]c2ccccc12)C(=O)N[C@H](CC(N)=O)C(=O)N[C@@H](CC(=O)O)C(=O)N[C@@H]1C(=O)NCC(=O)N[C@@H](CCCN)C(=O)N[C@@H](CC(=O)O)C(=O)N[C@H](C)C(=O)N[C@@H](CC(=O)O)C(=O)NCC(=O)N[C@H](CO)C(=O)N[C@@H]([C@H](C)CC(=O)O)C(=O)N[C@@H](CC(=O)c2ccccc2N)C(=O)O[C@@H]1C` [Daptomycin, daptomycin], the entries for the “Resistance (%), resistant strains” value in test [1] and in test [2] were 54.7% and 4%, respectively. Also, the “MIC50” value in test [3], in test [4], in test [5] and in test [6] was 2 µg/mL (≈ 1.23 µM) in each case. Further, the “MIC90” value is 4 µg/mL (≈ 2.47 µM) in test [3], 2 µg/mL (≈ 1.23 µM) in test [4], 2 µg/mL (≈ 1.23 µM) in test [5] and 4 µg/mL (≈ 2.47 µM) in test [6]. Besides, the “MIC Range” value was 0.125 to 4 µg/mL in test [3], 1 to 2 µg/mL in test [4], 0.125 to 4 µg/mL in test [5] and 0.0625 to 4 µg/mL in test [6]. The MIC in test [7] is 4 µg/mL (≈ 2.47 µM). Besides, the “minimum inhibitory concentration (MIC)” value in test [7] is 2 µg/mL (≈ 1.23 µM).
